Experimental data as given in patent publication US5482975A, “Adenosine diphosphoribose polymerase binding nitroso aromatic compounds useful as retroviral inactivating agents, anti-retroviral agents and anti-tumor agents” (priority 1993, dated 1996).

Columns and labels:
anti-tumor and anti-HIV = experiment: biological action of nitroso compounds (anti-tumor and anti-HIV, summary); type: cell-based; conditions: effective even after exposure of cells as short as 30 minutes
[1] = test system: HIV-1 (MN strain) virions; experiment: zinc loss from HIV-1 virions; type: biochemical
Experimental: Experiments were performed to determine if NOBA is capable of ejecting zinc from intact virions. HIV-1(MN strain) was produced, purified and concentrated as described in Bess et al., J. Virol. 66:840-847 (1992). The concentrated virus was diluted to 60 times that of culture fluid in TNE buffer (0.01 M Tris-HCl, 0.1M NaCl, 1 mM EDTA, pH 7.2) and incubated with 3000 or 6000 μM NOBA at 37° C. The virus was then pelleted and washed with TNE buffer to remove weakly bound zinc. The quantity of zinc in the resulting viral pellets was determined as described in Bess et al., J. Virol. 66:840-847 (1992).

855-2 cells [2] = experiment: colony formation (CFU) of leukemic cells in semi-solid medium (FIG. 4); type: cell-based, human
Experimental: (§1) Experiments were performed in which the functions of various cancer cells (855-2 and HL-60 leukemia cells, D32, D37 and CRL 7712 glioblastoma cell lines, 186 medulla tumor cell line, L1210 murine leukemia cell line, MDA-468 human breast tumor cell line) and normal cells (neutrophil leukocytes and bone marrow or peripheral blood stream cells) were assessed in the absence or presence of the compounds.

855-2 cells [3] = experiment: cytocidal activity, MTT assay; type: cell-based, human; conditions: 10 μM; 100,000 cells/ml
Experimental: MTT (3-[4,5-[…]]-2,5-diphenyltetrazolium bromide) at 1 mg/ml was then added for 16 hours. The absorbance of the pelleted cell was then measured at 550 nm after adding DMSO to solubilze the cells.

HL-60 cells = experiment: colony formation (CFU) of leukemic cells in semi-solid medium (FIG. 4); type: cell-based, human
Experimental: as §1

HIV-1 = experiment: inhibition of HIV infection, virus titer in stimulated human lymphoblasts; type: cell-based; conditions: 10 μM; 30 min exposure, day 10; virus alone 5.25
Experimental: VIII. Anti-HIV action of NOBP, NOBA and NOQ on stimulated human lymphoblasts.
Exposure to the two drugs was only for 30 minutes at the commencement of viral infection, and drugs were never re-added. The results given in Table III provide the ID50 of HIV titer 10 days after infection of cell cultures with HIV.

[4] = test system: normal rhesus bone marrow stem cells; experiment: CFU stem cell toxicity assay (FIG. 5A); conditions: 10 μM
855-2 cells [5] = experiment: [3H] thymidine uptake / growth, 855-2 cells (FIG. 2A, E, F; FIG. 3); type: cell-based, human
Experimental: FIGS. 2A-2F are a composite of graphs displaying the inhibitory effects of the ADRPT ligands on (FIG. 2A) 855-2 cells (a cell line of human B-cell lineage acute lymphoblastic leukemia), (FIG. 2B) H9 cells (a cell line of human T-cell lineage acute lymphoblastic leukemia), FIG. (2C) HL-60 cells (a cell line of human acute nonlymphoblastic leukemia) and (FIG. 2D) K562 cells (a cell line of human chronic myelogenous leukemia). These cells were cultured while under the influence of the growth factors in 10% fetal bovine serum (FCS), whereas in (FIG. 2E) and (FIG. 2F) the 855-2 cells were cultured in the presence of autocrine growth factor activity (AGF) or low molecular weight-B-cell growth factor (BCGF, a T-cell derived lymphokine), respectively.
Experiments using HL-60 cells (FIG. 2C) provided similar conclusions.
855-2 cells that were grown in media with (1) 10% fetal bovine serum, (2) autocrine growth factor (AGF) and (3) low molecular weight-BCGF (a T cell derived lymphokine) were exposed to increasing concentrations of the ADRPT ligands.

H9 cells = experiment: [3H] thymidine uptake, H9 cells (FIG. 2B); type: cell-based, human; conditions: 250 μM; 10% FCS
[6] = test system: normal cells (neutrophil leukocytes and bone marrow or peripheral blood cells); experiment: viability / functions of normal cells in presence of compounds
Experimental: as §1

Zn(HIV1-F1) = Zn(HIV1-F1) (Human immunodeficiency virus type 1 lw12.3 isolate, UniProt Q70622); experiment: NMR study of Zn ejection from HIV-1 NC zinc finger peptide; type: biochemical; set-up: parent Gag (Gag-Pol) polyprotein
Experimental: The * and + symbols denote the aromatic proton signals of the zinc-coordinated and zinc-free His 9 residue. Upon completion of the reaction, reflected by complete ejection of zinc (t=90 min), 50% of the NOBA remained unreacted indicating a 1:1 reaction stoichiometry. NOBA (3-nitrosobenzamide), was synthesized described elsewhere in this application.
To determine if NOBA is capable of ejecting zinc from retroviral-type zinc fingers, NMR studies were performed on a peptide with amino acid sequence corresponding to the N-terminal CCHC zinc finger of the HIV-1 NC protein, Zn(HIV1-F1), South, et al., J. Am. Chem. Soc. 111:395-396 (1989), South, et al., Biochem Pharm. 40:123-129 (1990 ), Summers, et al., Biochemistry 29:329-340 (1990). NMR spectra of Zn(HIV-F1) were performed before and after the addition of NOBA (3-nitrosobenzamide). […] Chem Soc. 111:395-396 (1989), and three-dimensional structural studies have shown that the peptide adopts a structure that is essentially identical to the structure of the corresponding region in the intact NC protein, South, et al., Biochemistry 29:7786-7789 (1990). The down-field region of the ^1 H NMR spectrum showing the signals due to the aromatic proton of His 9 and Phe 2 is illustrated in FIG. 10 (bottom). Addition of two molar equivalents of NOBA results in the loss of the signals due to zinc-bound histidine (denoted by *) and the appearance of broad signals representative of zinc-free histidine (denoted by +). Other signals in the spectrum are due to NOBA protons. […] By comparison, a 10-fold molar excess of EDTA is required to remove zinc from Zn(HIV-1-F1), Summers, et al., J. Cell Biochem 45:41-48 (1991).

[7] = test system: various cancer cells (855-2, HL-60, D32, D37, CRL 7712, 186 medulla, L1210, MDA-468); experiment: functions of various cancer cells in presence of compounds (FIGS. 4-9); type: cell-based; conditions: summary statement
Experimental: as §1

NC(=O)c1cccc(N=O)c1 [NOBA, 3-nitrosobenzamide]
anti-tumor and anti-HIV activity (anti-tumor and anti-HIV): highly active
loss of viral proteins in the pellet ([1]; 3000 or 6000 μM, 37° C., p24, gp120 RIA, SDS-PAGE): No significant loss of viral proteins
loss of infectivity ([1]; concentrated HIV-1 (60x)): complete loss of infectivity
losses of viral zinc ([1]; concentrated HIV-1 (60x)): 50-83%
ability to form colonies (CFU) (855-2 cells [2]): inhibit the ability
cell killing (855-2 cells [3]): complete killing
ability to form colonies (CFU) (HL-60 cells): inhibit the ability
Virus Titer (log ID50) (HIV-1): 1.05 log ID50
CFU stem cell toxicity [4]: non-toxic
growth arrest in increasing FCS (855-2 cells [5]; 10 μM, increasing FCS concentrations): Growth arrest occurs irrespective of the concentration of FCS
inhibitory effects with different growth factors (855-2 cells [5]; 10% fetal bovine serum, AGF or BCGF): potent inhibitory effects
inhibition of thymidine uptake (H9 cells): almost complete inhibition
effect on colony formation by normal cells ([6]; anti-leukemic doses, rhesus bone marrow and human peripheral blood stem cells, FIG. 5): minimal effect on normal cells
effect on viability of normal cells ([6]; tumor cell inhibitory concentrations): not to affect adversely the viability of normal cells
time to complete ejection of zinc (Zn(HIV1-F1); 2 mM NOBA, 1 mM Zn(HIV1-F1), D2O, pH*=6.2, 30° C.): 90 min
NOBA remaining unreacted on completion (Zn(HIV1-F1); 2 mM NOBA, t=90 min): 50%
stoichiometry of reaction (Zn(HIV1-F1); after 90 minutes): reacts stoichiometrically with Zn(HIV1-F1)
zinc-bound His signals (Zn(HIV1-F1); two molar equivalents, after 90 min.): no signals attributable to the zinc-bound His could be detected
effectiveness against tumor cells [7]: highly effective
